Test results as given in patent publication US20100028414A1, “COMBINATION OF TYROSINE KINASE INHIBITOR AND HER-2/NEU FOR CANCER THERAPY” (priority 2004, published 2010).

Columns and labels:
[1] = test system: BT474 human breast cancer cells; assay: In vitro growth inhibition assay ([3H] thymidine incorporation), BT474; type: cell-based; conditions: 0.01 μM Lapatinib, 50 μg/ml pAb, 72 h, FIG. 11A
Procedure: (§1) The antiproliferative effect of vaccine induced anti HER2 polyclonal antibodies (pAb) in combination with Lapatinib was evaluted on human breast cancer cells overexpressing the HER2/neu molecule (BT474 and SKBR3 cells) using the [^3H] thymidine incorporation method. Briefly, 10e4 cells were seeded in 200 μl, in triplicate, in 96-w plates and incubated for 72 h at 37° C. in • 1) medium; • 2) medium containing Lapatinib alone (0.01 μM); • 3) medium containing pAb alone (50 μg/ml); • 4) medium containing pre-immune pAb (TA2021) (50 μg/ml); • 5) a combination of (2) Lapatinib (0.01 μM ) and (3) pAb (50 μg/ml); or • 6) a combination of (2) Lapatinib (0.01 μM ) and (4) pre-immune pAb (TA2021) (50 μg/ml).
(§2) 1 μCi of [^3H] Thymidine (5 Ci/mmol; Amersham) was added for an additional 24 h after which cells were harvested by trypsinisation onto filter plates and the incorporated radioactivity was counted in a beta counter. Results were expressed in cpm and the percentage of growth inhibition was calculated referring to the medium.

[2] = test system: SKBR3 human breast cancer cells; assay: In vitro growth inhibition assay ([3H] thymidine incorporation), SKBR3; type: cell-based; conditions: 0.01 μM Lapatinib, 50 μg/ml pAb, 72 h, FIG. 11B
Procedure: as §1, §2

BT474 cells = assay: Apoptosis by annexin V staining and flow cytometry, BT474; type: cell-based, human; conditions: lapatinib 0.1 μM, pAb 100 μg/ml, trastuzumab 10 μg/ml, 72 hr, FIG. 12A top
Procedure: After harvesting the cells with trypsin-EDTA, 5000 cells in 50 μl were sampled on 96-well microplates. The cells were stained directly in the microplate with Annexin V-PE and Nexin 7-AAD in 1× Nexin Buffer in a 200 μl final reaction volume. After incubating for 20 minutes at room temperature, the reaction samples were ready to be acquired in the Guava PCA-96-system (Guava Technology, Inc., Hayward, Calif. USA).
7-AAD binds to cellular nuclear material after cellular membranes break down in late apoptosis. Annexin-V staining indicates early apoptotic changes that precede the loss of cellular membrane integrity. Use of Annexin-V in conjunction with 7-amino-actinomycin D (7-AAD) thus can identify both early and late apoptotic cells.
Flow cytometry results were graphed as dot plot results (not shown) with annexin V on the X-axis and 7-AAD on the Y-axis. Low annexin V and low 7-AAD represented viable cells; low annexin V and high 7-AAD indicated nuclear debris; cells with high annexin V staining indicated apoptotic cells.

survivin = assay: Western blot of steady state survivin protein, BT474 cells; type: cell-based, human; conditions: lapatinib 0.1 μM, pAb 100 μg/ml, trastuzumab 10 μg/ml, 72 hr, FIG. 12A bottom
Procedure: (§3) To assess the levels of various proteins in cells, whole cell extracts were prepared by scraping cells off petri dishes, washing the cell pellet twice in phosphate buffered saline (PBS), and then resuspending the pellet in two-packed-cell volumes of RIPA buffer(150 mM NaCl, 50 mM Tris-HCl, pH 7.5, 0.25% (w/v) deoxycholate, 1% NP-40, 5 mM sodium orthovanadate, 2 mM sodium fluoride, and a protease inhibitor cocktail). Protein concentrations were determined using a modification of the Bradford method (Bio-Rad Laboratory). […] The immunoprecipitates were separated by 4-15% gradient SDS-polyacrylamide […] gel electrophoresis (SDS-PAGE), and ErbB receptors were detected by Western Blot with anti-ErbB receptor antibodies.
(§4) Steady state levels of Survivin, total ErbB2, phosphorylated ErbB2 (pErbB2 or pTyr), total Erk1/2 , activated Erk1/2 (p-Erk), total pErbB3, activated pErbB3 (pErbB3), total AKT protein and activated Akt (p-Akt) protein were assessed by Western blot. Levels of pErbB2 were assessed using an antibody that bound to multiple tyrosine-phosphorylated forms of ErbB2 (i.e., the antibody was not phosphorylation-site specific). […]
(§5) For Western blot, equal amounts of proteins were resolved by either 7.5% or 4-15% gradient SDS polyacrylamide gel electrophoresis under reducing conditions. […] Efficiency and equal loading of proteins was evaluated by Ponceau S staining. […]

phospho-ErbB2 (p-ErbB2) = biological target: T1, phospho-ErbB2 (p-ErbB2) (Homo sapiens, UniProt P04626); assay: Western blot of activated phospho-ErbB2, BT474 cells; type: cell-based; conditions: lapatinib 0.1 μM, pAb 100 μg/ml, trastuzumab 10 μg/ml, 72 hr, FIG. 12A bottom
T1 construct: whole cell extracts were prepared by scraping cells off petri dishes; host or cells: BT474
Procedure: as §3, §4, §5

total ErbB2 = biological target: T2, total ErbB2 (Homo sapiens, UniProt P04626); assay: Western blot of total ErbB2, BT474 cells; type: cell-based; conditions: lapatinib 0.1 μM, pAb 100 μg/ml, trastuzumab 10 μg/ml, 72 hr, FIG. 12A bottom
T2 construct: whole cell extracts were prepared by scraping cells off petri dishes; host or cells: BT474
Procedure: as §3, §4, §5

phospho-Erk1/2 = assay: Western blot of activated phospho-Erk1/2, BT474 cells; type: cell-based, human; conditions: 72 hr, FIG. 13
Procedure: as §3, §4, §5

phospho-Akt = assay: Western blot of activated phospho-Akt, BT474 cells; type: cell-based, human; conditions: 72 hr, FIG. 13
Procedure: as §3, §4, §5

T1 sequence (P04626 23-1255): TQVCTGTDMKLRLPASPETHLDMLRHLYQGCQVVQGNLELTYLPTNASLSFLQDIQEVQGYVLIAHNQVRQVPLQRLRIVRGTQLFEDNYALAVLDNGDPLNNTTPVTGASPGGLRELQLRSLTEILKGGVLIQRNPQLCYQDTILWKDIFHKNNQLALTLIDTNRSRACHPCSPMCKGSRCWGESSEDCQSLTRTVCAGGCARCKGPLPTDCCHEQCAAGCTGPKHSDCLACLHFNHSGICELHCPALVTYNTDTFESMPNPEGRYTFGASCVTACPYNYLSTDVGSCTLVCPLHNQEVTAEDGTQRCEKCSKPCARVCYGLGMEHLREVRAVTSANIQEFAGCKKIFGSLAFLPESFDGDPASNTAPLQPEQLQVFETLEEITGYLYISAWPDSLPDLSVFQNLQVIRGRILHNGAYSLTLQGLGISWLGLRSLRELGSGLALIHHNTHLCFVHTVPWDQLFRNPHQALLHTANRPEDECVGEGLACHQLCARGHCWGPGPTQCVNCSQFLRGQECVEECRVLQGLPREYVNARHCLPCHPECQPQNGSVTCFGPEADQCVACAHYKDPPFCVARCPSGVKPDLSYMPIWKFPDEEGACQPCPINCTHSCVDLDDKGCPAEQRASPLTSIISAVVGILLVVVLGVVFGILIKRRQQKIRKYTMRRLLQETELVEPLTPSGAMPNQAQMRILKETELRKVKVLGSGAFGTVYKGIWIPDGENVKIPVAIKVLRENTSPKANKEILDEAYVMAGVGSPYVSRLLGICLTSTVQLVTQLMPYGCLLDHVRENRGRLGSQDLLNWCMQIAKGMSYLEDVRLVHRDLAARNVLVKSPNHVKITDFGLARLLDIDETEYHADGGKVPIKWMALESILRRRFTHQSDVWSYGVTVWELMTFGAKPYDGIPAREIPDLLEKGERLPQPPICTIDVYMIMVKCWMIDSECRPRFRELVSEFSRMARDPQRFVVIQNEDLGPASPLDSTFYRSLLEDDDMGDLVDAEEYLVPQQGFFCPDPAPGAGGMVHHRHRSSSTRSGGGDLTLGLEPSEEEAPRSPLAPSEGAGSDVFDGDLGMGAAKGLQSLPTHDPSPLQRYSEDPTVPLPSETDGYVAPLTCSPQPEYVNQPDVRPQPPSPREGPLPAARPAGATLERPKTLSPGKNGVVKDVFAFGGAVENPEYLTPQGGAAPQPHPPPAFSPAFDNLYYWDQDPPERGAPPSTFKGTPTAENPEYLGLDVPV
T2 sequence (P04626 23-1255): as above

- steady-state levels of activated, phosphorylated ErbB2 protein (pErbB2) (phospho-ErbB2 (p-ErbB2)): inhibited
- total ErbB2 protein (total ErbB2): without affecting total ErbB2 protein
SMILES: CS(=O)(=O)CCNCc1ccc(-c2ccc3ncnc(Nc4ccc(OCc5cccc(F)c5)c(Cl)c4)c3c2)o1 [lapatinib, N-{3-Chloro-4-[(3-fluorobenzyl)oxy]phenyl}-6-[5-({[2-(methanesulphonyl)ethyl]amino}methyl)-2-furyl]-4-quinazolmamine]
- growth inhibition [1]: only modest growth inhibition
- growth inhibition [2]: only modest growth inhibition
- apoptosis (BT474 cells): slight increase in apoptosis
- survivin protein expression (survivin): inhibited
- steady state levels of pErk1/2 (phospho-Erk1/2): reduced
- steady state levels of pAkt (phospho-Akt): reduced
